# From US10561657B2, “Pyrrolopyrimidine compound” (CENTAURUS BIOPHARMA CO., LTD., priority 2014, dated 2020)
# Counter-ions that a name gives are not always drawn.
# Columns and labels:
# [1] = Pharmacokinetic assay in adult female SD rats (30 mg/kg oral); format: in vivo
# [2] = tested on: Ba/F3-JAK2V617F tumor; assay: Efficacy in mouse subcutaneous xenograft tumor model; format: in vivo, Balb/c nude mice; details: for TGI (%) 3 d: day 3; for TGI (%) 7 d: day 7; for TGI (%) 10 d: day 10; for TGI (%) 14 d: day 14
# Experimental: 3. Assay for Efficacy in Mouse Subcutaneous Xenograft Tumor Model SPF grade Balb/c nude mice are female and 5-6 weeks old. 0.1 mL of the suspension of Ba/F3-JAK2V617F cells in serum-free culture medium (containing 1×10^7 cells, 50% MatriGel) was subcutaneously injected into right flank of each mouse. When the average tumor volume reached about 500 mm^3, the tumor-bearing mice were sacrificed. The tumor tissues were aseptically picked up, and cut into small pieces, which were subcutaneously implanted into both flanks of Balb/c nude mice. When the average tumor volume reached about 100 mm^3, each mouse was marked according to serial numbers, and their tumor sizes and body weights were measured, respectively. These mice were randomly allocated from small to large in terms of tumor volume, and each group of animals was appropriately adjusted to make the average body weights of the groups in a same level. […] The administration was started on the day of allocation, twice per day for 14 days. During the administration, the tumor volumes and body weights were measured twice per week. The mice were sacrificed at the end of the experiment, and the spleen was isolated and weighted. During the experiment, the maximum long diameter (L) and the maximum transverse diameter in the vertical direction (W) of the tumor were measured to calculate the tumor volume (V) according to V (mm^3)=L×W^2/2. […] T0 represents the average tumor volume of the treatment group when being allocated; Vt represents the average tumor volume measured every time in the control group; V0 represents the average tumor volume of the control group when being allocated.
# [3] = biological target: JAK2 kinase (wild type, JAK2^WT) (Homo sapiens (Human), UniProt O60674); assay: HTRF assay for enzymatic activity (IC50), JAK2 wild type; format: biochemical; details: ATP at Km, 120 min, 23 °C
# Experimental: 1. Assay for Enzymatic Activity (IC50) of Compounds
# A testing platform for kinase activity of JAK2 (wild type and V617F mutant type) was established based on Homogeneous Time-Resolved Fluorescence (HTRF) assay, and the activities of the compounds were tested using the platform. The compounds were subjected to three-fold gradient dilutions with 100% DMSO with a starting concentration of 1 mM (11 dilutions in total). 4 μL of each dilution was added to 96 μL of reaction buffer (50 mM HEPES, pH 7.4, 10 mM MgCl2, 1 mM EGTA, 0.01% Tween-20, 0.005% BAS, 2 mM DTT) and mixed homogeneously. […] The mixture was mixed homogeneously by centrifugation. […] The plate was incubated in the incubator for 1 hr, and then the fluorescence values were read on Envision (available from PerkinElmer). […] The enzymatic activity was representd by a ratio of the two readout at the two emission wavelengths. The enzymatic activity for each compound was tested at 11 concentrations, and IC50 values of the compounds were obtained by calculating the data using GraFit6.0 software (Erithacus Software). 2. Assay for cell proliferation activity (IC50) of compounds
# [4] = Pharmacokinetic assay in adult beagles (IV 5 mg/kg, PO 10 mg/kg); format: in vivo; details: for half-life / AUC(0-inf) / Cmax / Tmax: beagle, dog, plasma; for AUC(0-inf): read-out: AUCINF—obs
# Text: Pharmacokinetic Assay in Adult Beagles
# [5] = both sexes, IV 5 mg/kg, average
# [6] = both sexes, PO 10 mg/kg, average
# Chain of JAK2 kinase (wild type, JAK2^WT) (O60674 whole entry): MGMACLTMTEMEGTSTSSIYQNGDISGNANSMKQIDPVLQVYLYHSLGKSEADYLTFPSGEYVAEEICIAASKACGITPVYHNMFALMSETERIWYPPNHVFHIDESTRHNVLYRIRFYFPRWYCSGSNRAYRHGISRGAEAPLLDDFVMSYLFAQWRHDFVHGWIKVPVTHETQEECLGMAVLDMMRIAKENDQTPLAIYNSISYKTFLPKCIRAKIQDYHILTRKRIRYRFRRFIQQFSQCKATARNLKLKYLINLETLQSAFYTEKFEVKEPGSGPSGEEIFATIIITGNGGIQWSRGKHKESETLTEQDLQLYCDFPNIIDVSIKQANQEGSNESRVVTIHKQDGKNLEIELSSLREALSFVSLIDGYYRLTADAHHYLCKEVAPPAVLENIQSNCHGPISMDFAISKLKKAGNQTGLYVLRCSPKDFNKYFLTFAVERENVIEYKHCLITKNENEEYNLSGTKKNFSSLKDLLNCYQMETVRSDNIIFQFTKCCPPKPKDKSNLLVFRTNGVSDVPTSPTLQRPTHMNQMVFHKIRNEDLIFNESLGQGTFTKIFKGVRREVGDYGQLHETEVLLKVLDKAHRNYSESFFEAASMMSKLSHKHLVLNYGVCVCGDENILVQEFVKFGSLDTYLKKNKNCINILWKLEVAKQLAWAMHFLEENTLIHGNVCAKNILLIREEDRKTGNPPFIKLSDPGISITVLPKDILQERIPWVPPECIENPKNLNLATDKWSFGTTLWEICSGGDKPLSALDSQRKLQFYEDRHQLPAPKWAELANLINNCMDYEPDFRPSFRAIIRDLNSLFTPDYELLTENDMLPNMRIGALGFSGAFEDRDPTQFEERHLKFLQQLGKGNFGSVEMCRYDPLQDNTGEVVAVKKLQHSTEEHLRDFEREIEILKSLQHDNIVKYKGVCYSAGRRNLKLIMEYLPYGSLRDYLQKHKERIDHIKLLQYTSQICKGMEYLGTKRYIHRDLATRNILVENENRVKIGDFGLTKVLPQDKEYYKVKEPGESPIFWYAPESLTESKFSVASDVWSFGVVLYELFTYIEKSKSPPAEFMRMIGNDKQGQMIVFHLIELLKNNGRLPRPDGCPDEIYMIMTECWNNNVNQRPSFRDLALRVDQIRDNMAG
smiles,measurement,setting,value
"N#CC[C@H](C1CCCC1)n1cc(-c2ncnc3[nH]ccc23)c(N)n1 [(3R)-3-[3-amino-4-(7H-pyrrolo[2,3-d]pyrimidin-4-yl)-1H-pyrazol-1-yl]-3-cyclopentylpropanenitrile hydrochloride]",half-life,"[1]; female, Sprague-Dawley, rat, plasma, po, 30 mg/kg",1.95 h
same,AUC(0-inf),"[1]; female, Sprague-Dawley, rat, plasma, po, 30 mg/kg, read-out: AUCINFobs",5760 ng·h/mL
same,Cmax,"[1]; female, Sprague-Dawley, rat, plasma, po, 30 mg/kg, read-out: Cmax",2350 ng/mL
same,Tmax,"[1]; female, Sprague-Dawley, rat, plasma, po, 30 mg/kg, read-out: Tmax",0.33 h
same,TGI (%) 3 d,[2]; 25 mg/kg PO BID,45.45%
same,TGI (%) 7 d,[2]; 25 mg/kg PO BID,16.85%
same,TGI (%) 10 d,[2]; 25 mg/kg PO BID,54.49%
same,TGI (%) 14 d,[2]; 25 mg/kg PO BID,40.74%
same,TGI (%) 3 d,[2]; 50 mg/kg PO BID,41.77%
same,TGI (%) 7 d,[2]; 50 mg/kg PO BID,43.60%
same,TGI (%) 10 d,[2]; 50 mg/kg PO BID,65.19%
same,TGI (%) 14 d,"[2]; 50 mg/kg PO BID, hydrochloride",68.40%
same,TGI (%) 14 d,"[2]; 50 mg/kg PO BID, listed as hydrochloride of the compound of Example 5, hydrochloride",68.4%
same,TGI (%) 3 d,[2]; 100 mg/kg PO BID,91.62%
same,TGI (%) 7 d,[2]; 100 mg/kg PO BID,79.76%
same,TGI (%) 10 d,[2]; 100 mg/kg PO BID,89.37%
same,TGI (%) 14 d,"[2]; 100 mg/kg PO BID, hydrochloride",85.76%
same,TGI (%) 14 d,"[2]; 100 mg/kg PO BID, listed as hydrochloride of the compound of Example 5, hydrochloride",85.8%
same,inhibitory effect on Ba/F3-JAK2V617F tumor growth,"[2]; 25, 50, 100 mg/kg PO BID for 14 days",dose-dependent inhibitory effect
"N#CCC(C1CCCC1)n1ncc(-c2ncnc3[nH]ccc23)c1N (centres unmarked) [Example 3, 3-[5-amino-4-(7H-pyrrolo[2,3-d]pyrimidin-4-yl)-1H-pyrazol-1-yl]-3-cyclopentylpropanenitrile]",IC50,[3],< 20 nM
"N#CC[C@H](C1CCCC1)n1cc(-c2ncnc3[nH]ccc23)c(N)n1 [Example 5, (3R)-3-[3-amino-4-(7H-pyrrolo[2,3-d]pyrimidin-4-yl)-1H-pyrazol-1-yl]-3-cyclopentylpropanenitrile]",AUCINFobs,[1],6316 ng·h/mL
same,Cmax,[1],2204 ng/mL
same,Tmax,[1],0.58 h
same,t1/2,[1],2.20 h
same,Cl_obs,"[4]; IV 5 mg/kg, average",8.82 mL/min/kg
same,Vss_obs,"[4]; IV 5 mg/kg, average",1.974 L/kg
same,Cl_obs,"[4]; IV 5 mg/kg, female",7.37 mL/min/kg
same,Vss_obs,"[4]; IV 5 mg/kg, female",1.86 L/kg
same,Cl_obs,"[4]; IV 5 mg/kg, male",10.3 mL/min/kg
same,Vss_obs,"[4]; IV 5 mg/kg, male",2.089 L/kg
same,F,"[4]; PO 10 mg/kg, average",114%
same,F,"[4]; PO 10 mg/kg, female",119%
same,F,"[4]; PO 10 mg/kg, male",107%
same,half-life,"[4]; IV 5 mg/kg, female",3.65 h
same,AUC(0-inf),"[4]; IV 5 mg/kg, female",11500 ng·h/mL
same,half-life,"[4]; IV 5 mg/kg, male",3.64 h
same,AUC(0-inf),"[4]; IV 5 mg/kg, male",8190 ng·h/mL
same,Cmax,"[4]; PO 10 mg/kg, female",3980 ng/mL
same,Tmax,"[4]; PO 10 mg/kg, female",1.13 h
same,half-life,"[4]; PO 10 mg/kg, female",3.03 h
same,AUC(0-inf),"[4]; PO 10 mg/kg, female",27400 ng·h/mL
same,Cmax,"[4]; PO 10 mg/kg, male",3830 ng/mL
same,Tmax,"[4]; PO 10 mg/kg, male",0.25 h
same,half-life,"[4]; PO 10 mg/kg, male",3.04 h
same,AUC(0-inf),"[4]; PO 10 mg/kg, male",17500 ng·h/mL
same,half-life,[4]; [5],3.64 h
same,AUC(0-inf),[4]; [5],9850 ng·h/mL
same,Cmax,[4]; [6],3900 ng/mL
same,Tmax,[4]; [6],0.69 h
same,half-life,[4]; [6],3.03 h
same,AUC(0-inf),[4]; [6],22500 ng·h/mL
same,IC50,[3],< 20 nM
"N#CC[C@@H](C1CCCC1)n1cc(-c2ncnc3[nH]ccc23)c(N)n1 [Example 6, (3S)-3-[3-amino-4-(7H-pyrrolo[2,3-d]pyrimidin-4-yl)-1H-pyrazol-1-yl]-3-cyclopentylpropanenitrile]",IC50,[3],< 20 nM
"CC(=O)Nc1nn(C(CC#N)C2CCCC2)cc1-c1ncnc2[nH]ccc12 (centres unmarked) [Example 9, N-[1-(2-cyano-1-cyclopentylethyl)-4-(7H-pyrrolo[2,3-d]pyrimidin-4-yl)-1H-pyrazol-3-yl]acetamide]",IC50,[3],< 20 nM
"N#CCC(C1CCCC1)n1cc(-c2ncnc3[nH]ccc23)c(NCCN2CCOCC2)n1 (centres unmarked) [Example 11, 3-cyclopentyl-3-[3-(2-morpholinylethylamino)-4-(7H-pyrrolo[2,3-d]pyrimidin-4-yl)-1H-pyrazol-1-yl]propionitrile]",IC50,[3],< 20 nM
"N#CCC(C1CCCC1)n1cc(-c2ncnc3[nH]ccc23)c(NC(=O)CN2CCOCC2)n1 (centres unmarked) [Example 12, N-[1-(2-cyano-1-cyclopentylethyl)-4-(7H-pyrrolo[2,3-d]pyrimidin-4-yl)-1H-pyrazol-3-yl]-2-morpholinylacetamide]",IC50,[3],< 20 nM
"N#CCC(C1CCCC1)n1cc(-c2ncnc3[nH]ccc23)c(NCCC(=O)N2CCOCC2)n1 (centres unmarked) [Example 13, 3-cyclopentyl-3-[3-(3-morpholinyl-3-oxopropylamino)-4-(7H-pyrrolo[2,3-d]pyrimidin-4-yl)-1H-pyrazol-1-yl]propionitrile]",IC50,[3],< 20 nM
"N#CCC(C1CCCC1)n1cc(-c2ncnc3[nH]ccc23)c(NCC(=O)N2CCOCC2)n1 (centres unmarked) [Example 14, 3-cyclopentyl-3-[3-(2-morpholinyl-2-oxoethylamino)-4-(7H-pyrrolo[2,3-d]pyrimidin-4-yl)-1H-pyrazol-1-yl]propionitrile]",IC50,[3],< 20 nM
"CCOC(=O)CCC(=O)Nc1nn(C(CC#N)C2CCCC2)cc1-c1ncnc2[nH]ccc12 (centres unmarked) [Example 15, Ethyl 4-[1-(2-cyano-1-cyclopentylethyl)-4-(7H-pyrrolo[2,3-d]pyrimidin-4-yl)-1H-pyrazol-3-ylamino]-4-oxobutanoate]",IC50,[3],< 20 nM
"N#CCC(C1CCCC1)n1cc(-c2ncnc3[nH]ccc23)c(N2C(=O)CCC2=O)n1 (centres unmarked) [Example 16, 3-cyclopentyl-3-[3-(succinimid-1-yl)-4-(7H-pyrrolo[2,3-d]pyrimidin-4-yl)-1H-pyrazol-1-yl]propionitrile]",IC50,[3],< 100 nM
"N#CCC(C1CCCC1)n1cc(-c2ncnc3[nH]ccc23)c(NC2CC(C(=O)N3CCOCC3)C2)n1 (centres unmarked) [Example 17, 3-[3-(3-morpholin-4-carbonyl)cyclobutylamino-4-(7H-pyrrolo[2,3-d]pyrimidin-4-yl)-1H-pyrazolyl]-3-cyclopentylpropanenitrile]",IC50,[3],< 20 nM
"N#CCC(C1CCCC1)n1cc(-c2ncnc3[nH]cc(Br)c23)c(Br)n1 (centres unmarked) [Example 18, 3-[3-bromo-4-(5-bromo-7H-pyrrolo[2,3-d]pyrimidin-4-yl)-1H-pyrazol-1-yl]-3-cyclopentylpropanenitrile]",IC50,[3],< 1000 nM
"N#CCC(C1CCCC1)n1cc(-c2ncnc3[nH]ccc23)c(Br)n1 (centres unmarked) [Example 19, 3-[3-bromo-4-(7H-pyrrolo[2,3-d]pyrimidin-4-yl)-1H-pyrazol-1-yl]-3-cyclopentylpropanenitrile]",IC50,[3],< 20 nM
"N#CCC(C1CCCC1)n1cc(-c2ncnc3[nH]ccc23)c(C(N)=O)n1 (centres unmarked) [Example 24, 1-(2-cyano-1-cyclopentylethyl)-4-(7H-pyrrolo[2,3-d]pyrimidin-4-yl)-1H-pyrazol-3-formamide]",IC50,[3],< 20 nM
"CNC(=O)c1nn(C(CC#N)C2CCCC2)cc1-c1ncnc2[nH]ccc12 (centres unmarked) [Example 25, 1-(2-cyano-1-cyclopentylethyl)-N-methyl-4-(7H-pyrrolo[2,3-d]pyrimidin-4-yl)-1H-pyrazol-3-formamide]",IC50,[3],< 20 nM
"N#CCC(C1CCCC1)n1cc(-c2ncnc3[nH]ccc23)c(C(=O)NCCN)n1 (centres unmarked) [Example 26, N-(2-aminoethyl)-1-(2-cyano-1-cyclopentylethyl)-4-(7H-pyrrolo[2,3-d]pyrimidin-4-yl)-1H-pyrazol-3-formamide]",IC50,[3],< 20 nM
"N#CCC(C1CCCC1)n1cc(-c2ncnc3[nH]ccc23)c(C#N)n1 (centres unmarked) [Example 27, 1-(2-cyano-1-cyclopentylethyl)-4-(7H-pyrrolo[2,3-d]pyrimidin-4-yl)-1H-pyrazol-3-carbonitrile]",IC50,[3],< 20 nM
"N#CCC(C1CCCC1)n1cc(-c2ncnc3[nH]ccc23)c(CO)n1 (centres unmarked) [Example 28, 3-cyclopentyl-3-[3-(hydroxymethyl)-4-(7H-pyrrolo[2,3-d]pyrimidin-4-yl)-1H-pyrazol-1-yl]propionitrile]",IC50,[3],< 20 nM
